Our source for the IC50, TGI and CC50 values is ChEMBL document CHEMBL2150936, “Anticancer activity of small amphipathic β²,²-amino acid derivatives” (Eur J Med Chem, 2012).

A word on the IC50: it is the concentration at which inhibition is half-maximal. Low values mean inhibition by little substance, high ones a need for much substance. As a reminder, the TGI is the concentration giving total growth inhibition. Read a high TGI as lower sensitivity of the cells.

In this assay the test system is SF-268. Briefly: Cytotoxicity against human SF268 cells after 4 hrs by MTT assay. It counts as functional, cell-based. As to conditions: SF-268, 4 h. On the technique in general: Tetrazolium dyes change colour on reduction, which living cells bring about.

`NCCNC(=O)C(CN)(Cc1ccc2ccccc2c1)Cc1ccc2ccccc2c1` returned an IC50 of 2.82 µM and a TGI of 3.02 µM. Also, the CC50 (read-out: LC50 (the source's name)) was determined as 6.03 µM.
